# Measurements: ChEMBL document CHEMBL5325486, “Synthesis of novobiocin derivatives and evaluation of their antigonococcal activity and pharmacokinetics” (Bioorg Med Chem, 2023)
# Legend:
# [1] = tested on: Staphylococcus aureus; test: Antibacterial activity against Staphylococcus aureus assessed inhibition of bacterial growth; assay type: functional
# [2] = tested on: Neisseria gonorrhoeae; test: Antibacterial activity against resistant Neisseria gonorrhoeae assessed inhibition of bacterial growth; assay type: functional
# [3] = Aqueous solubility of compound in acidic JP1 solution; assay type: physicochemical
# [4] = Effective permeability of compound by PAMPA assay; assay type: ADME; settings: read-out: Peff
# [5] = Aqueous solubility of compound in neutral JP2 solution; assay type: physicochemical
# [6] = Metabolic stability in mouse liver microsomes assessed as residual rate; assay type: ADME, Microsome
# [7] = tested on: Neisseria gonorrhoeae; test: Antibacterial activity against Neisseria gonorrhoeae clinical isolate assessed inhibition of bacterial growth; assay type: functional
# [8] = JP1 solution, read-out: solubility
# [9] = JP2 solution, read-out: solubility
Papp [4] [×10⁻⁶ cm/s],Stability [6] [%],solubility ([3]; buffer) [µM],solubility ([5]; buffer) [µM],MIC90 [7] [µg/mL],SMILES,MIC50 [1] [µg/mL],MIC90 [1] [µg/mL],MIC50 [2] [µg/mL],MIC90 [2] [µg/mL],"solubility [3, 8] [µM]","solubility [5, 9] [µM]"
–,–,–,–,–,CO[C@@H]1[C@@H](OC(=O)c2ccc(C)[nH]2)[C@@H](O)[C@H](Oc2ccc3c(O)c(NC(=O)c4ccccc4)c(=O)oc3c2C)OC1(C)C,0.063,0.125,1,1,–,–
–,–,–,–,–,CO[C@@H]1[C@@H](OC(=O)c2ccc(C)[nH]2)[C@@H](O)[C@H](Oc2ccc3c(O)c(NC(=O)c4c(C)ncn4CC=C(C)C)c(=O)oc3c2C)OC1(C)C,0.5,0.5,0.5,0.5,–,–
–,–,–,–,–,CO[C@@H]1[C@@H](OC(=O)NOC(C)(C)C)[C@@H](O)[C@H](Oc2ccc3c(O)c(NC(=O)c4ccc(O)c(CC=C(C)C)c4)c(=O)oc3c2C)OC1(C)C,1,1,16,64,–,–
–,–,–,–,–,CO[C@@H]1[C@@H](OC(=O)c2ccc(C)[nH]2)[C@@H](O)[C@H](Oc2ccc3c(O)c(NC(=O)c4cccc(N5CCN(C)CC5)c4)c(=O)oc3c2C)OC1(C)C,0.5,0.5,1,1,–,–
–,–,–,–,–,C=CCONC(=O)O[C@H]1[C@@H](O)[C@H](Oc2ccc3c(O)c(NC(=O)c4ccc(O)c(CC=C(C)C)c4)c(=O)oc3c2C)OC(C)(C)[C@@H]1OC,0.125,0.25,1,2,–,–
–,–,–,–,–,CO[C@@H]1[C@@H](OC(=O)c2ccc(C)[nH]2)[C@@H](O)[C@H](Oc2ccc3c(O)c(NC(=O)c4ccnc(N)c4)c(=O)oc3c2C)OC1(C)C,2,2,0.5,1,–,–
–,–,–,–,–,CO[C@@H]1[C@@H](OC(=O)c2ccc(C)[nH]2)[C@@H](O)[C@H](Oc2ccc3c(O)c(NC(=O)c4ccnc(N(C)C)c4)c(=O)oc3c2C)OC1(C)C,0.5,0.5,0.5,0.5,–,–
–,–,–,–,–,CO[C@@H]1[C@@H](OC(=O)c2cc(Cl)c(C)[nH]2)[C@@H](O)[C@H](Oc2ccc3c(O)c(NC(=O)c4ccc(O)c(CC=C(C)C)c4)c(=O)oc3c2C)OC1(C)C,0.063,0.125,0.5,1,–,–
–,–,–,–,–,CO[C@@H]1[C@@H](OC(=O)c2ccc(C)[nH]2)[C@@H](O)[C@H](Oc2ccc3c(O)c(NC(=O)c4cscn4)c(=O)oc3c2C)OC1(C)C,0.5,0.5,0.5,0.5,–,–
–,–,–,–,–,CO[C@@H]1[C@@H](OC(=O)c2ccc[nH]2)[C@@H](O)[C@H](Oc2ccc3c(O)c(NC(=O)c4ccc(O)c(CC=C(C)C)c4)c(=O)oc3c2C)OC1(C)C,0.125,0.25,0.5,1,–,–
–,–,–,–,–,CO[C@@H]1[C@@H](OC(=O)c2ccc(C)[nH]2)[C@@H](O)[C@H](Oc2ccc3c(O)c(NC(=O)CN(C)C)c(=O)oc3c2C)OC1(C)C,1,2,2,4,> 100,> 100
–,–,–,–,–,CO[C@@H]1[C@@H](OC(=O)c2ccc(C)[nH]2)[C@@H](O)[C@H](Oc2ccc3c(O)c(NC(=O)c4cn(C)c(CCC(C)C)n4)c(=O)oc3c2C)OC1(C)C,0.25,0.25,0.5,1,–,–
–,–,–,–,–,CO[C@@H]1[C@@H](OC(=O)c2ccc(C)[nH]2)[C@@H](O)[C@H](Oc2ccc3c(O)c(NC(=O)CCN(C)C)c(=O)oc3c2C)OC1(C)C,2,4,16,32,> 100,> 100
–,–,–,–,–,CO[C@@H]1[C@@H](OC(=O)c2ccc(C)[nH]2)[C@@H](O)[C@H](Oc2ccc3c(O)c(NC(=O)c4c[nH]cn4)c(=O)oc3c2C)OC1(C)C,1,1,1,1,–,–
–,–,–,–,–,CO[C@@H]1[C@@H](OC(=O)c2ccc(C)[nH]2)[C@@H](O)[C@H](Oc2ccc3c(O)c(NC(=O)c4cn(CC5CC5)cn4)c(=O)oc3c2C)OC1(C)C,0.5,0.5,0.5,1,–,–
–,–,–,–,–,CO[C@@H]1[C@@H](OC(=O)c2ccc(C)[nH]2)[C@@H](O)[C@H](Oc2ccc3c(O)c(NC(=O)c4sc5nccn5c4C)c(=O)oc3c2C)OC1(C)C,0.5,1,0.5,0.5,–,–
–,–,–,–,–,CO[C@@H]1[C@@H](NC(=O)c2ccc(C)[nH]2)[C@@H](O)[C@H](Oc2ccc3c(O)c(NC(=O)c4ccc(O)c(CC=C(C)C)c4)c(=O)oc3c2C)OC1(C)C,2,2,32,64,–,–
–,–,–,–,–,C=Cc1cc(C(=O)Nc2c(O)c3ccc(O[C@@H]4OC(C)(C)[C@H](OC)[C@@H](OC(=O)c5ccc(C)[nH]5)[C@H]4O)c(C)c3oc2=O)ccn1,0.5,1,0.5,0.5,–,–

Papp [4] [×10⁻⁶ cm/s],Stability [6] [%],solubility ([3]; buffer) [µM],solubility ([5]; buffer) [µM],MIC90 [7] [µg/mL],SMILES,MIC50 [1] [µg/mL],MIC90 [1] [µg/mL],MIC50 [2] [µg/mL],MIC90 [2] [µg/mL],"solubility [3, 8] [µM]","solubility [5, 9] [µM]"
–,–,–,–,–,CO[C@@H]1[C@@H](OC(=O)c2ccc(C)[nH]2)[C@@H](O)[C@H](Oc2ccc3c(O)c(NC(=O)Cn4c(-c5ccccn5)nc5ccccc54)c(=O)oc3c2C)OC1(C)C,0.25,0.5,0.5,0.5,–,–
–,–,–,–,–,CCCn1cnc(C(=O)Nc2c(O)c3ccc(O[C@@H]4OC(C)(C)[C@H](OC)[C@@H](OC(=O)c5ccc(C)[nH]5)[C@H]4O)c(C)c3oc2=O)c1,0.5,0.5,1,1,–,–
–,–,–,–,–,CO[C@@H]1[C@H](NC(=O)c2ccc(C)[nH]2)[C@@H](O)[C@H](Oc2ccc3c(O)c(NC(=O)c4ccc(O)c(CC=C(C)C)c4)c(=O)oc3c2C)OC1(C)C,> 128,> 128,64,> 64,–,–
–,–,–,–,–,CO[C@@H]1[C@@H](OC(=O)c2ccc(C)[nH]2)[C@@H](O)[C@H](Oc2ccc3c(O)c(NC(=O)c4csc(C)n4)c(=O)oc3c2C)OC1(C)C,0.25,0.25,0.25,0.5,–,–
–,–,–,–,–,CO[C@@H]1[C@@H](OC(=O)NOCC(C)C)[C@@H](O)[C@H](Oc2ccc3c(O)c(NC(=O)c4ccc(O)c(CC=C(C)C)c4)c(=O)oc3c2C)OC1(C)C,0.5,1,4,16,–,–
–,–,–,–,–,CO[C@@H]1[C@@H](OC(=O)c2[nH]c(C)cc2C)[C@@H](O)[C@H](Oc2ccc3c(O)c(NC(=O)c4ccc(O)c(CC=C(C)C)c4)c(=O)oc3c2C)OC1(C)C,0.063,0.125,0.25,0.25,–,–
–,–,–,–,–,CO[C@@H]1[C@@H](OC(=O)c2ccc(C)[nH]2)[C@@H](O)[C@H](Oc2ccc3c(O)c(NC(=O)c4cn(Cc5ccccn5)cn4)c(=O)oc3c2C)OC1(C)C,0.25,0.5,0.5,0.5,–,–
–,–,–,–,–,CO[C@@H]1[C@@H](OC(=O)c2ccc(C)[nH]2)[C@@H](O)[C@H](Oc2ccc3c(O)c(NC(=O)c4ccnc(Oc5cccnc5)c4)c(=O)oc3c2C)OC1(C)C,0.5,1,0.5,1,–,–
–,–,–,–,–,CO[C@@H]1[C@@H](OC(=O)c2ccc(C)[nH]2)[C@@H](O)[C@H](Oc2ccc3c(O)c(NC(=O)c4cn(Cc5cccc(C(F)(F)F)c5)cn4)c(=O)oc3c2C)OC1(C)C,0.125,0.25,0.25,0.5,–,–
–,–,–,–,–,CCc1cc(C(=O)Nc2c(O)c3ccc(O[C@@H]4OC(C)(C)[C@H](OC)[C@@H](OC(=O)c5ccc(C)[nH]5)[C@H]4O)c(C)c3oc2=O)ccn1,0.5,1,0.5,1,–,–
–,–,–,–,–,CO[C@@H]1[C@@H](OC(=O)c2ccc(C)[nH]2)[C@@H](O)[C@H](Oc2ccc3c(O)c(NC(=O)c4ccncc4)c(=O)oc3c2C)OC1(C)C,4,8,1,1,–,–
–,–,–,–,–,CO[C@@H]1[C@@H](OC(=O)c2ccc(C)[nH]2)[C@@H](O)[C@H](Oc2ccc3c(O)c(NC(=O)c4cncn4C)c(=O)oc3c2C)OC1(C)C,0.5,0.5,0.5,1,–,–
–,–,–,–,–,C#CCCNC(=O)O[C@H]1[C@@H](O)[C@H](Oc2ccc3c(O)c(NC(=O)c4ccc(O)c(CC=C(C)C)c4)c(=O)oc3c2C)OC(C)(C)[C@@H]1OC,0.5,0.5,16,32,–,–
–,–,–,–,–,CC[C@H]1OC(=O)[C@H](C)[C@@H](O[C@H]2C[C@@](C)(OC)[C@@H](O)[C@H](C)O2)[C@H](C)[C@@H](O[C@@H]2O[C@H](C)C[C@H](N(C)C)[C@H]2O)[C@](C)(O)C[C@@H](C)CN(C)[C@H](C)[C@@H](O)[C@]1(C)O [AZITHROMYCIN],> 128,> 128,0.25,8,–,–
–,–,–,–,–,CO/N=C(\C(=O)N[C@@H]1C(=O)N2C(C(=O)O)=C(CSc3nc(=O)c(O)nn3C)CS[C@H]12)c1csc(N)n1 [CEFTRIAXONE],1,> 128,0.008,0.25,–,–
4.19,107,63.4,67,0.5,O=c1ccc2ncc(=O)n3c2n1C[C@H]3CN1CCC(NCc2cc3c(cn2)OCCC3)CC1 [GEPOTIDACIN],–,–,–,–,–,–
–,–,–,–,–,CO[C@@H]1[C@@H](OC(N)=O)[C@@H](O)[C@H](Oc2ccc3c(O)c(NC(=O)c4ccc(O)c(CC=C(C)C)c4)c(=O)oc3c2C)OC1(C)C [NOVOBIOCIN],0.25,0.25,1,2,–,–
0.653,104,–,–,0.25,CC[C@H]1OC(=O)[C@@](C)(F)C(=O)[C@H](C)[C@@H](O[C@@H]2O[C@H](C)C[C@H](N(C)C)[C@H]2O)[C@](C)(OC)C[C@@H](C)C(=O)[C@H](C)[C@H]2N(CCCCn3cc(-c4cccc(N)c4)nn3)C(=O)O[C@]12C [SOLITHROMYCIN],–,–,–,–,> 80,49.4

SMILES,Papp [4] [×10⁻⁶ cm/s],Stability [6] [%],solubility ([3]; buffer) [µM],solubility ([5]; buffer) [µM],MIC90 [7] [µg/mL],MIC50 [1] [µg/mL],MIC90 [1] [µg/mL],MIC50 [2] [µg/mL],MIC90 [2] [µg/mL],"solubility [3, 8] [µM]","solubility [5, 9] [µM]"
CO[C@@H]1[C@@H](OC(=O)c2ccc(C)[nH]2)[C@@H](O)[C@H](Oc2ccc3c(O)c(NC(=O)c4ccnc(C)c4)c(=O)oc3c2C)OC1(C)C,0.349,120,–,–,–,0.5,1,0.25,0.5,55,71.8
